# Test results as given in US10314323B2, “Methods for improving the condition of hair in non-human animals” (Hill's Pet Nutrition, Inc., priority 2012, dated 2019).
# “Also recorded” adds a separate entry of the source.
# System: healthy adult cats
# Assay: Hair 18-MEA content after feeding amino acid supplemented diets to healthy cats
# Assay type: in vivo, cat
# Details: versus control base diet, regression model with base line as covariant; p<0.05 for isoleucine and threonine, p>0.05 for leucine
# Description: The hair was clipped from the left middle flank areas of 24 healthy adult cats. The clipped regions measured approximately 20.32 cm by 10.16 cm (about 8 inches by about 4 inches). Hair was clipped as close to the skin as possible. The cats were then fed a base diet consisting of a commercially available nutritionally complete food for a period of 90 days. The nutrient content of the base food is set out in Table 1. On day 90, newly grown hair was clipped from the left middle flanks of the cats. The clipped regions measured approximately 19.05 cm by 8.89 cm (about 7.5 inches by about 3.5 inches). Samples of the clipped hair from each cat were retained and analysed for their 18-MEA content in order to determine the base line levels. The cats were divided into four groups of 6. The age, sex and nurturing status of the cats were balanced between the groups. The groups were randomly assigned a diet selected from the base diet, the base diet plus supplemental leucine, the base diet plus supplemental isoleucine, and the base diet plus supplemental threonine as shown in Table 2. The groups were fed the assigned diets for 90 days. On day 180, the newly grown hair was clipped from the left middle flanks of the cats. The clipped regions measured approximately 17.78 cm by 7.62 cm (about 7 inches by about 3 inches). Samples of clipped hair from each cat were retained and analysed for 18-MEA content. For the 18-MEA analysis, hair samples were first washed with circulating ethyl ether for 6 hours to remove the surface lipids and oils. The hair samples were cut into pieces about 5 mm in length or less, digested and extracted for 18-MEA that was measured with a gas chromatograph. The 18-MEA data were analysed using a regression model. Hair 18-MEA content was the dependent variable, and diet was used as the independent variable. The base line data were used as the covariant.
row,Structure (SMILES),Effect on 18-MEA concentration of the hair
1,"CC(C)C[C@H](N)C(=O)O [Leucine, leucine, reference compound]",no significant effect
2,"CC[C@H](C)[C@H](N)C(=O)O [isoleucine, (2S, 3S)-2-amino-3-methylpentanoic acid]",increase; also recorded: significantly increased
3,"C[C@@H](O)[C@H](N)C(=O)O [threonine, (2S, 3R)-2-amino-3-hydroxybutanoic acid]",increase; also recorded: significantly increased
